Results published in article PMC6270063, “Novel Antimicrobial Peptide Dendrimers with Amphiphilic Surface and Their Interactions with Phospholipids — Insights from Mass Spectrometry” (Molecules, 2013).
Converted amounts (≈) assume the structure as drawn. Like-named read-outs stand apart in the source and are kept apart here.

Legend:
P. aeruginosa ATCC 27853 = system: P. aeruginosa ATCC 27853
Description: (§1) The bacteria Staphylococcus aureus ATCC 25923, Staphylococcus aureus ATCC 43300,Escherichia coli ATCC 25922 and Pseudomonas aeruginosa ATCC 27853 were cultivated on tryptone-soy agar (TSA; Oxoid) for 24 h at 37 °C. Broth microdilution susceptibility tests were performed as described in the Committee Laboratory Standards (CLSI) reference method M07-A8 [41]. Bacteria inocula (5 µL) containing 10^6 CFU/mL were used. The final concentration of dendrimers ranged from 256 to 2 µg/mL, polymyxin B and penicillin G from 8 to 0,15 µg/mL (or 5.8 to 0.1 µM and 21.5 to 0.4 µM, respectively for polymyxin B and penicillin G) were the reference compounds. The plates were incubated at 35 °C and were read after 18 or 24 h depending on the bacterial strain. Minimal Inhibitory Concentrations (MICs) were defined as the lowest drug concentration that reduced the growth by 100%.

S. aureus ATCC 43300 = system: S. aureus ATCC 43300
Description: as §1

E. coli ATCC 25922 [1] = system: E. coli ATCC 25922
Description: as §1

S. aureus ATCC 25923 = assay: microbe, parasite or virus in culture
Description: as §1

human red blood cells = assay: Hemolysis assay; assay type: cell-based; settings: 1% hematocrit in PBS pH 7.4, 30 min at 23 °C, from Figure 4
Description: Dendrimer-induced hemolysis was measured as previously reported. Briefly, human red blood cells obtained from healthy volunteers, were suspended in phosphate buffered saline (PBS, pH 7.4). Prepared suspension of 1% hematocrit was incubated with serial concentration of dendrimers for 30 min at 23 °C. After centrifugation (4,000 rpm, 5 min) the absorbance of supernatant was measured at 540 nm (Spectrostar Omega, BMG Labtech, Ortenberg, Germany). A value of 100% hemolysis was determined by incubation of erythrocytes with double-distilled water (30 min at 23 °C). In a control experiment, cells were incubated in buffer without peptide and absorbance at 540 nm value was used as a blank:
A: Absorbance of the samples incubated with dendrimers;
Ab: Absorbance of the blank samples;
A100%: Absorbance of the reference;
Ac: Absorbance of red blood cells in PBS, hematocrit 1%.

E. coli ATCC 25922 [2] = assay type: cell-based, Escherichia coli; settings: for Activity (MIC) at 200 µM Na+ or K+ concentration / Change of bioactivity on increase of Ca2+ and Mg2+ concentration / Sensitivity of MIC to increase of Na+ or K+ concentration: E. coli ATCC 25922; for Activity (MIC) at 200 µM Na+ or K+ concentration / Sensitivity of MIC to increase of Na+ or K+ concentration: triplicate; for Change of bioactivity on increase of Ca2+ and Mg2+ concentration: Ca2+ and Mg2+ up to 5 mM; for Sensitivity of MIC to increase of Na+ or K+ concentration: Na+ or K+ up to 100 µM, CAMHB with added NaCl or KCl
Description: as §1
The effect of salt concentration on the antimicrobial activity of two dendrimers was tested by determining the MICs under a variety of cations concentrations. CAMHB used in the assay was altered by the addition of salt. NaCl or KCl were added to the media to a final concentrations of 10, 50, 100, 200, 500 mM, wheareas CaCl2 or MgCl2 were added to the media to a final concentrations of 0.5, 1.5, 2.5, 5.5, 10.5, and 20.5 mM. Additionally, similar test was performed using MHB (without Ca^2+, Mg^2+) for divalent cations Ca^2+ and Mg^2+. Experiment was performed in triplicate.

[3] = broth microdilution CLSI M07-A8, CAMHB with 0.5 mM Ca2+ and Mg2+, 35 °C, 18 or 24 h
[4] = methicillin-resistant strain, broth microdilution CLSI M07-A8, CAMHB with 0.5 mM Ca2+ and Mg2+, 35 °C, 18 or 24 h
[5] = broth microdilution CLSI M07-A8, CAMHB with 0.5 mM Ca2+ and Mg2+, no K+ and Na+, 35 °C, read after 18 or 24 h, MIC = lowest concentration reducing growth by 100%

SMILES	Minimal inhibitory concentration (MIC), P. aeruginosa ATCC 27853 (P. aeruginosa ATCC 27853; ATCC 27853, 24 h)	Minimal inhibitory concentration (MIC), S. aureus ATCC 43300 (S. aureus ATCC 43300; ATCC 43300, 24 h)	Minimal inhibitory concentration (MIC), E. coli ATCC 25922 (E. coli ATCC 25922 [1]; ATCC 25922, 24 h)	Minimal inhibitory concentration (MIC), S. aureus ATCC 25923 (S. aureus ATCC 25923; ATCC 25923, 24 h)	Minimal inhibitory concentration (MIC), P. aeruginosa ATCC 27853 (P. aeruginosa ATCC 27853; [3])	Minimal inhibitory concentration (MIC), S. aureus ATCC 43300 (S. aureus ATCC 43300; [4])	Minimal inhibitory concentration (MIC), E. coli ATCC 25922 (E. coli ATCC 25922 [1]; [3])	Minimal inhibitory concentration (MIC), S. aureus ATCC 25923 (S. aureus ATCC 25923; [5])	also measured
N[C@@H](CCCCNC(=O)OCc1ccccc1Cl)C(=O)NCCNC(=O)CCN(CCC[C@@H](C(=O)NCCc1cnc[nH]1)N(CCC(=O)NCCNC(=O)[C@@H](N)CCCCNC(=O)OCc1ccccc1Cl)CCC(=O)NCCNC(=O)[C@@H](N)CCCCNC(=O)OCc1ccccc1Cl)CCC(=O)NCCNC(=O)[C@@H](N)CCCCNC(=O)OCc1ccccc1Cl [Dendrimer 3g]	211 µM (≈ 394 µg/mL)	16.4 µM (≈ 30.7 µg/mL)	211 µM (≈ 394 µg/mL)	51 µM (≈ 95.3 µg/mL)	–	–	–	–	–
CCCCCCCCCCCCNC(=O)[C@H](CCCN(CCC(=O)NCCNC(=O)[C@@H](N)CCCCNC(=O)OCc1ccccc1Cl)CCC(=O)NCCNC(=O)[C@@H](N)CCCCNC(=O)OCc1ccccc1Cl)N(CCC(=O)NCCNC(=O)[C@@H](N)CCCCNC(=O)OCc1ccccc1Cl)CCC(=O)NCCNC(=O)[C@@H](N)CCCCNC(=O)OCc1ccccc1Cl [Dendrimer 3h]	32 µM (≈ 62.2 µg/mL)	1.85 µM (≈ 3.59 µg/mL)	7.9 µM (≈ 15.4 µg/mL)	3.7 µM (≈ 7.19 µg/mL)	–	–	–	–	–
N[C@@H](CCCCNC(=O)OCc1ccccc1Cl)C(=O)NCCNC(=O)CCN(CCC[C@@H](C(=O)Nc1cccnc1)N(CCC(=O)NCCNC(=O)[C@@H](N)CCCCNC(=O)OCc1ccccc1Cl)CCC(=O)NCCNC(=O)[C@@H](N)CCCCNC(=O)OCc1ccccc1Cl)CCC(=O)NCCNC(=O)[C@@H](N)CCCCNC(=O)OCc1ccccc1Cl [Dendrimer 3e]	–	–	–	–	142 µM (≈ 263 µg/mL)	142 µM (≈ 263 µg/mL)	142 µM (≈ 263 µg/mL)	16.6 µM (≈ 30.7 µg/mL)	Hemotoxicity (level) (human red blood cells): highest hemotoxicity and high
CC1(C)S[C@@H]2[C@H](NC(=O)Cc3ccccc3)C(=O)N2[C@H]1C(=O)O [Penicillin G, reference compound]	–	–	–	–	–	–	–	–	MIC (S. aureus ATCC 25923; Staphylococcus aureus, ATCC25923, read-out: Minimal inhibitory concentration (MIC), S. aureus ATCC 25923): 6.6 µM (≈ 2.21 µg/mL)
NCCCC[C@H](NC(=O)OCc1ccccc1Cl)C(=O)NCCNC(=O)CCN(CCC[C@@H](C(=O)NCCc1cnc[nH]1)N(CCC(=O)NCCNC(=O)[C@H](CCCCN)NC(=O)OCc1ccccc1Cl)CCC(=O)NCCNC(=O)[C@H](CCCCN)NC(=O)OCc1ccccc1Cl)CCC(=O)NCCNC(=O)[C@H](CCCCN)NC(=O)OCc1ccccc1Cl [Dendrimer 3c]	141 µM (≈ 264 µg/mL)	141 µM (≈ 264 µg/mL)	141 µM (≈ 264 µg/mL)	24.7 µM (≈ 46.2 µg/mL)	–	–	–	–	–
CCCCCCCCCCCCNC(=O)[C@H](CCCN(CCC(=O)NCCNC(=O)[C@H](CCCCN)NC(=O)OCc1ccccc1Cl)CCC(=O)NCCNC(=O)[C@H](CCCCN)NC(=O)OCc1ccccc1Cl)N(CCC(=O)NCCNC(=O)[C@H](CCCCN)NC(=O)OCc1ccccc1Cl)CCC(=O)NCCNC(=O)[C@H](CCCCN)NC(=O)OCc1ccccc1Cl [Dendrimer 3d]	–	–	1.85 µM (≈ 3.59 µg/mL)	1.85 µM (≈ 3.59 µg/mL)	–	–	–	–	–
NCCCC[C@H](NC(=O)OCc1ccccc1Cl)C(=O)NCCNC(=O)CCN(CCC[C@@H](C(=O)Nc1cccnc1)N(CCC(=O)NCCNC(=O)[C@H](CCCCN)NC(=O)OCc1ccccc1Cl)CCC(=O)NCCNC(=O)[C@H](CCCCN)NC(=O)OCc1ccccc1Cl)CCC(=O)NCCNC(=O)[C@H](CCCCN)NC(=O)OCc1ccccc1Cl [Dendrimer 3a]	–	–	–	–	>252 µM	>252 µM	>252 µM	2.85 µM (≈ 5.28 µg/mL)	Hemotoxicity (level) (human red blood cells): much lower toxicity and low
NCCCC[C@H](NC(=O)OCc1ccccc1Cl)C(=O)NCCNC(=O)CCN(CCC[C@@H](C(=O)NCCc1c[nH]c2ccccc12)N(CCC(=O)NCCNC(=O)[C@H](CCCCN)NC(=O)OCc1ccccc1Cl)CCC(=O)NCCNC(=O)[C@H](CCCCN)NC(=O)OCc1ccccc1Cl)CCC(=O)NCCNC(=O)[C@H](CCCCN)NC(=O)OCc1ccccc1Cl [Dendrimer 3b]	–	–	–	–	51 µM (≈ 97.8 µg/mL)	12.1 µM (≈ 23.2 µg/mL)	12.1 µM (≈ 23.2 µg/mL)	1.87 µM (≈ 3.59 µg/mL)	MIC in presence of Ca2+ (E. coli ATCC 25922 [2]; ATCC 25922, 24 h): 119.8 µM; Activity (MIC) at 200 µM Na+ or K+ concentration (E. coli ATCC 25922 [2]): retained much activity; Change of bioactivity on increase of Ca2+ and Mg2+ concentration (E. coli ATCC 25922 [2]): slow decrease; Sensitivity of MIC to increase of Na+ or K+ concentration (E. coli ATCC 25922 [2]): not sensitive
N[C@@H](CCCCNC(=O)OCc1ccccc1Cl)C(=O)NCCNC(=O)CCN(CCC[C@@H](C(=O)NCCc1c[nH]c2ccccc12)N(CCC(=O)NCCNC(=O)[C@@H](N)CCCCNC(=O)OCc1ccccc1Cl)CCC(=O)NCCNC(=O)[C@@H](N)CCCCNC(=O)OCc1ccccc1Cl)CCC(=O)NCCNC(=O)[C@@H](N)CCCCNC(=O)OCc1ccccc1Cl [Dendrimer 3f]	–	–	–	–	60 µM (≈ 115 µg/mL)	20.4 µM (≈ 39.1 µg/mL)	7.9 µM (≈ 15.2 µg/mL)	0.93 µM (≈ 1.78 µg/mL)	MIC in presence of Mg2+ (E. coli ATCC 25922 [2]; ATCC 25922, 24 h): 119.8 µM; Activity (MIC) at 200 µM Na+ or K+ concentration (E. coli ATCC 25922 [2]): retained much activity; Change of bioactivity on increase of Ca2+ and Mg2+ concentration (E. coli ATCC 25922 [2]): slow decrease; Sensitivity of MIC to increase of Na+ or K+ concentration (E. coli ATCC 25922 [2]): not sensitive
